These results are taken from US6943191B1, “Disubstituted lavendustin A analogs and pharmaceutical composition comprising the analogs” (The United States of America as represented by the …, priority 1998, dated 2005).

For one assay, the target named is T1, p210^bcr-abl (Homo sapiens, UniProt P00519).
T1 construct: immune complexes containing ^32P-labeled p210^bcr-abl were collected on protein Sepharose beads; BCR (N-terminal part of the breakpoint cluster region protein, natural fusion partner); endogenous in cells; host or cells: K562 cells (lysate, immunoprecipitated on Protein A-Sepharose); the other entry of the earlier key: BCR (P11274, Breakpoint cluster region protein)
In words: Inhibition of in vitro auto-phosphorylation of p210^bcr-abl, immune-complex kinase assay. It counts as biochemical. The conditions noted are these: immune complex kinase assay, 3 experiments, read-out: Enzyme Assays IC50 (μM) p210bcl-abl in vitro phosphorylation. A digest of the protocol:
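p210^bcr-abl immunoprecipitated from K562 cell lysates, then incubated with compounds in 20 mM PIPES (pH 7.0)–20 mM MnCl2. Autophosphorylation started with […], 20 min at 30 °C, read by 4-20% SDS-PAGE and autoradiography.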

Another assay deals with NCI-H23. In words: Hollow fiber assay in mice, NCI-H23. Conditions: QD X 4, Day 4; for % T/C NCI-H23 IP: IP fibers; for % T/C NCI-H23 SC: SC fibers. It counts as in vivo, human. How it is done:
(§1) Compounds satisfying Formulas 1 and 2 also have been tested for in vivo activity in the hollow fiber assay. See Example 12 below for the procedure used for the in vivo tests. Each compound tested was tested against a minimum of 12 human cancer cell lines. Data is reported as % T/C (i.e., the […]) for each of the 2 compound doses against each of the cell lines with separate values calculated for the intraperitoneal and subcutaneous samples, with a target value for % T/C being about 50 or less.
(§2) Compounds were selected for further in vivo testing in standard subcutaneous xenograft models on the basis of several hollow fiber assay criteria. These criteria include: (1) a % T/C of 50 or less in 10 of the 48 possible test combinations (12 cell lines×2 sites×2 compound doses); (2) activity at a distance (intrapentoneal drug/subcutaneous culture) in a minimum of 4 of the 24 possible combinations; and/or (3) a net cell kill of 1 or more cell lines in either implant site. To simplify evaluation, a point system has been adopted which allows rapid assessment of a compound's activity. A value of 2 is assigned for each compound dose which results in a 50% or greater reduction in viable cell mass. The intraperitoneal and subcutaneous samples were scored separately so that criteria (1) and (2) could be evaluated. Compounds with a combined IP+SC score≧20, an SC score≧8, or a net cell kill of one or more cell lines were referred for xenograft testing. These criteria have been statistically validated by comparing the activity outcomes of greater than 80 randomly selected compounds in the hollow fiber assay and in the xenograft testing.
(§3) This example describes the method used for in vivo testing of mice. Human cancer cells were cultivated in polyvinylidene fluoride (PVDF) hollow fibers. A sample of each cancer cell line was implanted intraperitoneally and subcutaneously in mice. Each mouse received a total of 6 fibers, 3 intraperitoneally and 3 subcutaneously, representing 3 distinct cancer cell lines. Three mice were treated with compounds made according to the present invention at each of two test doses intraperitoneally using a QD×4 treatment schedule. […] Anticancer effects were assessed by determining viable cell mass for each of the coil line using a formazan dye (MTT) conversion assay. From this, the % TIC was calculated using the average optical density of the compound-treated samples divided by the average optical density of the vehicle controls. In addition, the net increase in cell mass was determined for each sample as samples of fiber cultures were assessed for viable cell mass on the day of implantation into mice. This allowed cytostatic and cytocidal capacities of these compounds to be assessed.

The next assay deals with NCI-H522. As to the kind of experiment: Hollow fiber assay in mice, NCI-H522. It counts as in vivo, human. The conditions noted are these: QD X 4, Day 4; for % T/C NCI-H522 IP: IP fibers; for % T/C NCI-H522 SC: SC fibers. On the procedure: as §1, §2, §3

SMILES strings stand for the structures. Read-outs that look alike come from different tables or passages of the source. A value given as a limit tells only on which side of the number the result lay.

T1 sequence (P00519 with tags, fused parts or gaps): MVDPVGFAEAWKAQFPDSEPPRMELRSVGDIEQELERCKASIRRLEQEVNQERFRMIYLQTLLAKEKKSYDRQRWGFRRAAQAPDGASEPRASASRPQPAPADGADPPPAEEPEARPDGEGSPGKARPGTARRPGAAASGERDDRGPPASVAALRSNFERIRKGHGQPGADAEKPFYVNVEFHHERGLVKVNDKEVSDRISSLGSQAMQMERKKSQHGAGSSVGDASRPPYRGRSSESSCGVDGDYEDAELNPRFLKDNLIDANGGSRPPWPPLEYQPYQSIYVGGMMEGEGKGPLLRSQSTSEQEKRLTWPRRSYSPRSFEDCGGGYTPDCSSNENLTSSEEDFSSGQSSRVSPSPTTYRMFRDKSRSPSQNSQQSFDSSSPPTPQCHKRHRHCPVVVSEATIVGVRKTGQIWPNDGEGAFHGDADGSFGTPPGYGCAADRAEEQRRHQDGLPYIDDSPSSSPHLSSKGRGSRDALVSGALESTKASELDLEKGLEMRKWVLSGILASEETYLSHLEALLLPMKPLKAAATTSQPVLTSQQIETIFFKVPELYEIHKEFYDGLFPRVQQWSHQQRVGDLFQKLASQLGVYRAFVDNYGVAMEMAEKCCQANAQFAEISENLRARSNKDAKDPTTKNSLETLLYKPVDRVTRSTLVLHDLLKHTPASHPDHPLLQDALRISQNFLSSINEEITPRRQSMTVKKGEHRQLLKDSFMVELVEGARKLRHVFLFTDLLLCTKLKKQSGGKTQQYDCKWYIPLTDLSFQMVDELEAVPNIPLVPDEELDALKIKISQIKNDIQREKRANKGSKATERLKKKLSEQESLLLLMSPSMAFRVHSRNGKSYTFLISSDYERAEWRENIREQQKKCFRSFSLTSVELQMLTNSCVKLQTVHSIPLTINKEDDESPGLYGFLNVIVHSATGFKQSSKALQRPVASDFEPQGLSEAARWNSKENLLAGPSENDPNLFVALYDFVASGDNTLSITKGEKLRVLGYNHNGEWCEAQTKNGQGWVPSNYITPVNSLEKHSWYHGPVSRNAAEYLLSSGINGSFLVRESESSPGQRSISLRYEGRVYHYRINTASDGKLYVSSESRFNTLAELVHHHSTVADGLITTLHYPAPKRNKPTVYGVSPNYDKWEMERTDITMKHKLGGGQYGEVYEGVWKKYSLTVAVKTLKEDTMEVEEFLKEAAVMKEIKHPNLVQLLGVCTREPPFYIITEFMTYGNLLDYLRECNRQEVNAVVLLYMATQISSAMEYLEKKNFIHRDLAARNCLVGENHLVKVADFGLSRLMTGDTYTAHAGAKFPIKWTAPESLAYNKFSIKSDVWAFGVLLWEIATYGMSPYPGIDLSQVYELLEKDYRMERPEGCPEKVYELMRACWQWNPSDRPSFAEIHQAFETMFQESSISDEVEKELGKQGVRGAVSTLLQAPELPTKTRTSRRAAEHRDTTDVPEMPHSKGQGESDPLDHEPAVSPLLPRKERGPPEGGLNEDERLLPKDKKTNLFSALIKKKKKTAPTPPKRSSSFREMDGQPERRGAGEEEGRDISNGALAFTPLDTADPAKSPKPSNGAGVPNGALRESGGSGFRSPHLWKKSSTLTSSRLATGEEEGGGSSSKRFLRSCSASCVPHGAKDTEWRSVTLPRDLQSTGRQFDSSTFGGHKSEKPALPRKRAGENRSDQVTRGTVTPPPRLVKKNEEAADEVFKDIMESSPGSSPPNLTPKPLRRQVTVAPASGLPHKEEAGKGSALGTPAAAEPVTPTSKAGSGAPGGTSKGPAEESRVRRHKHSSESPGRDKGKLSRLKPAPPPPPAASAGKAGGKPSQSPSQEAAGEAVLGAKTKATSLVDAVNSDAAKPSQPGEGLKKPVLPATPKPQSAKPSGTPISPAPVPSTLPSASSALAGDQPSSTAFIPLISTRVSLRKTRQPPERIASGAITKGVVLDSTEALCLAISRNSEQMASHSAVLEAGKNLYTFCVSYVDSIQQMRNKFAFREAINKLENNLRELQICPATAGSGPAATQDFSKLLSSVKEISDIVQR

With `COC(=O)c1ccc(CCc2cc(O)c(Br)cc2O)cc1`, the IC50 on p210^bcr-abl (Table 10, mean ± S.E.) came out at 4.42 ± 0.24 µM. On the same count and under the same terms, in the case of `COC(=O)c1ccc(CCC2=CC(=O)C(Br)=CC2=O)cc1` it was 3.52 ± 0.16 µM; in that of `CC(C)OC(=O)c1ccc(CCC2=CC(=O)C(Br)=CC2=O)cc1`, 4.19 ± 0.07 µM. In the case of `CC(C)(C)OC(=O)c1ccc(NCc2cc(O)ccc2O)cc1` [COOC(CH3)3 / H / H, 4′-t-butylbenzoate-1′-N-2,5-dihydroxybenzylamine], at p210^bcr-abl (Table 8, mean+S.E.), the IC50 is 7.72 µM. Turning to `O=C(OCc1ccccc1)c1ccc(NCc2cc(O)ccc2O)cc1` [COOCH2Ph / H / H], the IC50 on p210^bcr-abl (Table 8, mean+S.E.) is 36.6 µM. In the case of `COC(=O)c1ccc(C=Cc2cc(O)ccc2O)cc1` [COOCH3 / 2,5-dihydoxyphenyl / CH═CH / H], the IC50 at p210^bcr-abl (Table 10, mean ± S.E.) amounted to 19.9 ± 9.94 µM. The same measure, in the same setting: in the case of `COC(=O)c1ccc(/C=C/C2=CC(=O)C=CC2=O)cc1` [COOCH3 / 2,5-quinoyl / CH═CH / H] it was 5.47 ± 0.22 µM. As for `CC(C)OC(=O)c1ccc(CCC2=CC(=O)C=CC2=O)cc1` [COOCH(CH3)2 / 2,5-quinoyl / CH2—CH2 / H], the IC50 at p210^bcr-abl (Table 10, mean ± S.E.) was determined as 5.26 ± 2.09 µM. `CC(C)OC(=O)c1ccc(NCc2cc(O)ccc2O)cc1Cl` [COOCH(CH3)2 / Cl / H, 5′-chloro-4′-isopropylbenzoate-1′-N-2,5-dihydroxybenzylamine]: the IC50 at p210^bcr-abl (Table 8, mean+S.E.) stood at 1.22 µM. In the case of `CC(C)OC(=O)c1ccc(NCc2cc(O)ccc2O)cc1` [COOCH(CH3)2 / H / H], the concentration for half-maximal inhibition (IC50) at p210^bcr-abl (Table 8, mean+S.E.) is 4.45 µM.

`CC(C)C(OC(=O)c1ccc(NCC2=CC(=O)C=CC2=O)cc1)C(C)C` [COOCH[CH(CH3)2]2 / H / 2,5-quinoyl]: the IC50 at p210^bcr-abl (Table 9, mean ± S.E.) came to 34 ± 9.02 µM.

On to `CC(C)C(OC(=O)c1ccc(NCc2cc(O)ccc2O)cc1)C(C)C` [COOCH[CH(CH3)2]2 / H / H], for which, on p210^bcr-abl (Table 8, mean+S.E.), the IC50 came to 11.1 µM. Turning to `O=C(OC12CC3CC(CC(C3)C1)C2)c1ccc(NCc2cc(O)ccc2O)cc1` [Compound 6, 4′-adamantylbenzoate-1′-N-2,5-dihydroxybenzylamine], in the assay on NCI-H23 (33.50 mg/kg/dose IP), the “% T/C NCI-H23 IP” value is reported as 100% and the “% T/C NCI-H23 SC” value was greater than 100%. Besides, in the assay on NCI-H23 (50.00 mg/kg/dose IP), the “% T/C NCI-H23 IP” value was greater than 100% and the “% T/C NCI-H23 SC” value is on record as greater than 100%. Besides, in the assay with NCI-H522 (33.50 mg/kg/dose IP), the “% T/C NCI-H522 IP” value was 94% and the “% T/C NCI-H522 SC” value is 89%. Further, in the assay on NCI-H522 (50.00 mg/kg/dose IP), the “% T/C NCI-H522 IP” value came to 48% and the “% T/C NCI-H522 SC” value is listed as 89%. Further, the IC50 at p210^bcr-abl (Table 8, mean+S.E.) was 13.6 µM.

Regarding `O=C(OCC12CC3CC(CC(C3)C1)C2)c1ccc(NCc2cc(O)ccc2O)cc1` [Compound 7, 4′-4′-adamantylmethylbenzoate-1′-N-2,5-dihydroxybenzylamine], the IC50 at p210^bcr-abl (Table 8, mean+S.E.) turned out to be 12.6 µM.

What is called IC50 is the point on the concentration scale where inhibition reaches its midpoint.
